These results are taken from US4316894A, “Antibiotic SF-1130-x3 3 substance and production and use thereof” (Meiji Seika Kaisha, Ltd., priority 1979, dated 1982).

Each structure is given as a SMILES string.

Assay [1] can be described thus: Suppression of elevation of blood sugar level in mice given starch or sucrose orally. In kind it is in vivo, ICR-strain male mice. The settings on record: test drug 10 mg/kg oral (dose of the x1 + x2 mixture not stated), 30 minutes after administration, ICR male mice, six per group. As for the experimental part: The test was carried out by the following procedure: Test animal was ICR-strain male mice (six mice per group, weighing 25 g in average) which had been abstained from water for 20 hours. 1 g/kg of starch or 2.5 g/kg of sucrose was orally given to the mice. At the same time, 10 mg/kg of the compound of this invention or 10 mg/kg of deoxynojirimycin as a comparative drug was orally administered to these mice. 30 minutes after the administration, the glucose level in blood was measured.

The target of assay [2] is α-glucosidase. Briefly: Determination of the activity of inhibiting α-glucosidase. In kind it is biochemical, pig. The settings on record: measured in the same way as above; read-out: ID50 values (comparison substances, measured in the same way as above). The source says: The compound of this invention is useful for highly inhibiting the enzymatic reaction of glucosidase and particularly for inhibiting the enzymatic reaction of α-glucosidase as well as the enzymatic reaction of saccharase. Such the inhibitory activity of the compound of this invention may be estimated according to the following procedure with the α-glucosidase prepared from ileum mucosa of pig as disclosed in the literature "Acta Chem. Scand." vol. 12, page 1997 (1958).
(1) Determination of the activity of inhibiting α-glucosidase. There are prepared the following four solutions:
Solution A: A solution of the enzyme (α-glucosidase) having appropriately been diluted to a desired enzyme concentration with 0.1 M maleate buffered solution (pH 6.0)
Solution B: 0.1 M maleate buffered solution (pH 6.0)
Solution C: An aqueous solution of 0.014 M p-nitrophenyl-α-D-glycoside (as the substrate) in water
Solution D: An aqueous solution of 0.1 M sodium carbonate in water […]
In the above assay, degree (%) of inhibition for the inhibitor sample to the α-glucosidase is calculated according to the following equation: […]

Consider `OC[C@H]1NC[C@H](O)[C@@H](O)[C@@H]1O` [Deoxynojirimycin], for which the “Blood sugar level, groups receiving starch” value in assay [1] (starch 1 g/kg oral) was 101 ± 22.9 mg/dL. For the same molecule, the “Blood sugar level, groups receiving sucrose” value in assay [1] (sucrose 2.5 g/kg oral) came out at 93 ± 15.4 mg/dL.

As for `OC[C@H]1NC(O)[C@H](O)[C@@H](O)[C@@H]1O` (stereo partly drawn) [nojirimycin], the IC50 in assay [2] stood at 360 µM.
